Results on eleven compounds are retold here after the RepoRT retention time repository (doi:10.1016/j.jchromb.2020.122105).

Structures are written as SMILES.

What all share (conditions): stereoisomer not certain
A short description of data set [1]: RP, Waters ACQUITY UPLC BEH C18, 100 × 2.1 mm, 1.7 µm, 0.1 mL/min, estimated dead time 2.2 min; A: water + 0.045% formic acid + 0.11% ammonium hydroxide, pH 7; B: methanol; gradient (min/%B) 0/5 5/5 25/95 25.1/100 35/100 35.1/5 45/5.
Data set [2] can be described thus: RP, Waters ACQUITY UPLC BEH C18, 100 × 2.1 mm, 1.7 µm, 0.2 mL/min, estimated dead time 1.1 min; A: water + 0.025% formic acid + 20 mM ammonium acetate + 0.055% ammonium hydroxide, pH 7; B: methanol; gradient (min/%B) 0/5 5/5 25/100 30/100 30.1/5 35/5.
Data set [3] in a line: RP, Waters CORTECS T3, 100 × 2.1 mm, 2.7 µm, 0.15 mL/min, estimated dead time 1.5 min; A: water + 0.1% formic acid, pH 3; B: methanol + 0.1% formic acid, pH 3; gradient (min/%B) 0/0 1/0 6/5 30/100 35/100 35.1/0 40/0.
A short description of data set [4]: RP, Waters CORTECS T3, 100 × 2.1 mm, 2.7 µm, 0.3 mL/min, estimated dead time 0.73 min; A: water + 0.1% formic acid, pH 3; B: methanol + 0.1% formic acid, pH 3; gradient (min/%B) 0/5 5/5 25/95 25.1/100 35/100 35.1/5 45/5.
Data set [5] in a line: RP, Waters CORTECS T3, 100 × 2.1 mm, 2.7 µm, 0.3 mL/min, estimated dead time 0.73 min; A: water + 0.1% formic acid, pH 3; B: methanol + 0.1% formic acid, pH 3; gradient (min/%B) 0/5 5/5 25/100 30/100 30.1/5 35/5.
A short description of data set [6]: RP, Waters ACQUITY UPLC BEH C18, 100 × 2.1 mm, 1.7 µm, 0.1 mL/min, estimated dead time 2.2 min; A: water + 0.1% formic acid, pH 3; B: methanol + 0.1% formic acid, pH 3; gradient (min/%B) 0/5 5/5 25/95 25.1/100 35/100 35.1/5 45/5.
Data set [7] is described as follows: RP, Waters CORTECS T3, 100 × 2.1 mm, 2.7 µm, 0.25 mL/min, estimated dead time 0.88 min; A: water + 0.1% formic acid, pH 3; B: methanol + 0.1% formic acid, pH 3; gradient (min/%B) 0/0 1/0 6/5 30/100 35/100 35.1/0 40/0.
Data set [8] in a line: RP, Waters CORTECS T3, 100 × 2.1 mm, 2.7 µm, 0.2 mL/min, estimated dead time 1.1 min; A: water + 0.1% formic acid, pH 3; B: methanol + 0.1% formic acid, pH 3; gradient (min/%B) 0/0 1/0 6/5 30/100 35/100 35.1/0 40/0.
A short description of data set [9]: RP, Waters CORTECS T3, 100 × 2.1 mm, 2.7 µm, 0.3 mL/min, estimated dead time 0.73 min; A: water + 0.1% formic acid, pH 3; B: methanol + 0.1% formic acid, pH 3; gradient (min/%B) 0/0 1/0 6/5 30/100 35/100 35.1/0 40/0.
Data set [10] is described as follows: RP, Waters CORTECS T3, 100 × 2.1 mm, 2.7 µm, 0.2 mL/min, estimated dead time 1.1 min; A: water + 0.045% formic acid + 0.11% ammonium hydroxide, pH 7; B: methanol; gradient (min/%B) 0/5 5/5 25/95 25.1/100 35/100 35.1/5 45/5.
A short description of data set [11]: RP, Waters CORTECS T3, 100 × 2.1 mm, 2.7 µm, 0.1 mL/min, estimated dead time 2.2 min; A: water + 0.1% formic acid, pH 3; B: methanol + 0.1% formic acid, pH 3; gradient (min/%B) 0/0 1/0 6/5 30/100 35/100 35.1/0 40/0.
Data set [12] in a line: RP, Waters ACQUITY UPLC BEH C18, 100 × 2.1 mm, 1.7 µm, 0.1 mL/min, estimated dead time 2.2 min; A: water + 0.1% formic acid, pH 3; B: methanol + 0.1% formic acid, pH 3; gradient (min/%B) 0/5 5/5 25/100 30/100 30.1/5 35/5.
A short description of data set [13]: RP, Waters CORTECS T3, 100 × 2.1 mm, 2.7 µm, 0.1 mL/min, estimated dead time 2.2 min; A: water + 0.1% formic acid, pH 3; B: methanol + 0.1% formic acid, pH 3; gradient (min/%B) 0/5 5/5 25/95 25.1/100 35/100 35.1/5 45/5.
Data set [14] in a line: RP, Waters CORTECS T3, 100 × 2.1 mm, 2.7 µm, 0.3 mL/min, estimated dead time 0.73 min; A: water + 0.1% formic acid, pH 3; B: methanol + 0.1% formic acid, pH 3; gradient (min/%B) 0/0 5/0 25/100 30/100 30.1/0 35/0.
Data set [15] in a line: RP, Waters CORTECS T3, 100 × 2.1 mm, 2.7 µm, 0.2 mL/min, estimated dead time 1.1 min; A: water + 0.1% formic acid, pH 3; B: methanol + 0.1% formic acid, pH 3; gradient (min/%B) 0/5 5/5 25/95 25.1/100 35/100 35.1/5 45/5.
The nature of data set [16]: RP, Waters ACQUITY UPLC BEH C18, 100 × 2.1 mm, 1.7 µm, 0.2 mL/min, estimated dead time 1.1 min; A: water + 0.1% formic acid, pH 3; B: methanol + 0.1% formic acid, pH 3; gradient (min/%B) 0/5 5/5 25/100 30/100 30.1/5 35/5.
Data set [17] in a line: RP, Waters CORTECS T3, 100 × 2.1 mm, 2.7 µm, 0.3 mL/min, estimated dead time 0.73 min; A: water + 0.1% formic acid, pH 3; B: methanol + 0.1% formic acid, pH 3; gradient (min/%B) 0/0 1/0 6/5 30/100 35/100 35.1/0 40/0. This is another data set of the same source.
Data set [18] in a line: RP, Waters CORTECS T3, 100 × 2.1 mm, 2.7 µm, 0.2 mL/min, estimated dead time 1.1 min; A: water + 0.1% formic acid, pH 3; B: methanol + 0.1% formic acid, pH 3; gradient (min/%B) 0/0 1/0 6/5 30/100 35/100 35.1/0 40/0. This is another data set of the same source.
A short description of data set [19]: RP, Waters CORTECS T3, 100 × 2.1 mm, 2.7 µm, 0.3 mL/min, estimated dead time 0.73 min; A: water + 0.1% formic acid, pH 3; B: methanol + 0.1% formic acid, pH 3; gradient (min/%B) 0/0 5/0 25/100 30/100 30.1/0 35/0. The source holds these as a separate data set.
Data set [20] can be described thus: RP, Waters CORTECS T3, 100 × 2.1 mm, 2.7 µm, 0.25 mL/min, estimated dead time 0.88 min; A: water + 0.1% formic acid, pH 3; B: methanol + 0.1% formic acid, pH 3; gradient (min/%B) 0/5 5/5 25/95 25.1/100 35/100 35.1/5 45/5.
Data set [21] can be described thus: RP, Thermo Scientific Hypercarb, 150 × 2.1 mm, 5 µm, 0.1 mL/min, estimated dead time 3.3 min; A: water + 0.1% formic acid, pH 3; B: methanol + 0.1% formic acid, pH 3; gradient (min/%B) 0/5 5/5 20/100 35/100 35.1/5 45/5.

For `CCCCCCCCCC(=O)OCC(COP(=O)([O-])OCC[N+](C)(C)C)OC(=O)CCCCCCCCC` (centres undefined) [1,2-DIDECANOYL-SN-GLYCERO-3-PHOSPHOCHOLINE], the LC retention time in data set [1] is 29.7 min; in data set [2] it was 26 min; in data set [3], 30.9 min; in data set [4], 25.3 min; in data set [5] it was 24.3 min; in data set [6], 29.7 min. Also, the LC retention time in data set [7] was 29.2 min; in [8], 29.8 min; in data set [9] it was 28.7 min; in data set [10], 26 min.

As for `O=c1cccc[nH]1` [2-HYDROXYPYRIDINE], the LC retention time in data set [1] is 5.83 min; in data set [11], 2.74 min; in data set [2] it was 3.24 min; in data set [3], 5.81 min; in data set [12], 5.99 min; in data set [4] it was 1.89 min. The LC retention time in data set [5] was 1.91 min; in [6], 2.75 min; in data set [7], 3.26 min; in [13], 5.41 min; in data set [8], 4.15 min; in data set [9], 2.69 min. Besides, the LC retention time in data set [14] was 2.85 min; in [10], 2.92 min.

With `NCCP(=O)(O)O` [(2-AMINOETHYL)PHOSPHONATE], the results for the LC retention time in data set [6] and in data set [15] were 2.75 min and 2.44 min, respectively.

As to `CN(CC(=O)O)C(N)=NP(=O)(O)O` [CREATINE PHOSPHATE], the LC retention time in data set [6] is 3.05 min.

Regarding `C[N+](C)(C)CCOP(=O)(O)OP(=O)([O-])OCC1OC(n2ccc(N)nc2=O)C(O)C1O` (centres undefined) [CYTIDINE 5'-DIPHOSPHOCHOLINE], the LC retention time in data set [3] was 1.78 min; in data set [6], 2.72 min; in data set [7], 1.09 min; in data set [8] it was 1.34 min.

As for `Nc1nc2c(ncn2C2OC(COP(=O)(O)O)C(O)C2O)c(=O)[nH]1` (centres undefined) [GUANOSINE 5'-MONOPHOSPHATE], the LC retention time in [4] was 0.9 min; in data set [16] it was 1.79 min; in [6], 2.84 min; in data set [7], 1.09 min; in data set [17] it was 0.92 min; in data set [15] it was 2.67 min. The LC retention time in [18] was 1.35 min; in [19], 0.89 min; in data set [20], 1.08 min.

With `NC(=O)c1ccc[n+](C2OC(COP(=O)(O)OP(=O)(O)OCC3OC(n4cnc5c(N)ncnc54)C(O)C3O)C(O)C2O)c1` (centres undefined) [NAD], the LC retention time in data set [12] was 2.74 min; in data set [6] it was 2.78 min.

With `NC(=O)c1cccnc1` [NICOTINAMIDE], the LC retention time in data set [1] is 6.91 min; in [21], 24.4 min; in [2], 3.89 min; in data set [3] it was 3.31 min; in [12], 3.66 min; in [4] it was 1.17 min. The LC retention time in data set [5] was 1.2 min; in data set [6], 2.69 min; in data set [7], 1.9 min; in data set [13], 3.38 min; in data set [8], 2.36 min; in [9] it was 1.57 min. Besides, the figures for the LC retention time in data set [14] and in [10] were 1.63 min and 3.68 min, respectively.

As for `C[N+](C)(C)CCOP(=O)(O)O` [PHOSPHOCHOLINE], the LC retention time is 4.81 min in data set [21] and 2.66 min in data set [6].

`C[N+](C)(C)CCOP(=O)([O-])OCC(O)CO` (centres undefined) [SN-GLYCERO-3-PHOSPHOCHOLINE]: the LC retention time is 5.02 min in [21] and 2.66 min in [6].

As for `O=c1cc[nH]c(=O)[nH]1` [URACIL], the LC retention time was 21.2 min in data set [21]; 1.85 min in data set [3]; 2.76 min in [12]; 0.95 min in data set [5]; 2.69 min in data set [6]; 1.11 min in data set [7]. In addition, the values for the LC retention time in data set [13], in data set [8] and in data set [14] were 2.68 min, 1.36 min and 0.91 min, respectively.
